Measurements reported in ChEMBL document CHEMBL4507327 (2021).
Calls of active or inactive are those of the source. The calls are words filed in the database; no cut-off is given here.

Assays:
[1] = target: L-type calcium channel, dihydropyridine site (Cav1.2 alpha-1C) (Homo sapiens, UniProt Q13936); experiment: Inhibition of Calcium Channel L-Type, Dihydropyridine at 10 µM in the Eurofins-Panlabs radioligand binding assay (Eurofins_assay_214600); parameters: ligand concentration 0.1 nM, non-specific ligand with concentration 1 µM Nitrendipine, incubation time 90 min, incubation temperature 25 °C; conditions: Wistar, rat, cerebral cortices of rats, probe [3H] Nitrendipine; compound concentration 10 uM; target entry is the homologue from another species
Chain of L-type calcium channel, dihydropyridine site (Cav1.2 alpha-1C) (Q13936 whole entry): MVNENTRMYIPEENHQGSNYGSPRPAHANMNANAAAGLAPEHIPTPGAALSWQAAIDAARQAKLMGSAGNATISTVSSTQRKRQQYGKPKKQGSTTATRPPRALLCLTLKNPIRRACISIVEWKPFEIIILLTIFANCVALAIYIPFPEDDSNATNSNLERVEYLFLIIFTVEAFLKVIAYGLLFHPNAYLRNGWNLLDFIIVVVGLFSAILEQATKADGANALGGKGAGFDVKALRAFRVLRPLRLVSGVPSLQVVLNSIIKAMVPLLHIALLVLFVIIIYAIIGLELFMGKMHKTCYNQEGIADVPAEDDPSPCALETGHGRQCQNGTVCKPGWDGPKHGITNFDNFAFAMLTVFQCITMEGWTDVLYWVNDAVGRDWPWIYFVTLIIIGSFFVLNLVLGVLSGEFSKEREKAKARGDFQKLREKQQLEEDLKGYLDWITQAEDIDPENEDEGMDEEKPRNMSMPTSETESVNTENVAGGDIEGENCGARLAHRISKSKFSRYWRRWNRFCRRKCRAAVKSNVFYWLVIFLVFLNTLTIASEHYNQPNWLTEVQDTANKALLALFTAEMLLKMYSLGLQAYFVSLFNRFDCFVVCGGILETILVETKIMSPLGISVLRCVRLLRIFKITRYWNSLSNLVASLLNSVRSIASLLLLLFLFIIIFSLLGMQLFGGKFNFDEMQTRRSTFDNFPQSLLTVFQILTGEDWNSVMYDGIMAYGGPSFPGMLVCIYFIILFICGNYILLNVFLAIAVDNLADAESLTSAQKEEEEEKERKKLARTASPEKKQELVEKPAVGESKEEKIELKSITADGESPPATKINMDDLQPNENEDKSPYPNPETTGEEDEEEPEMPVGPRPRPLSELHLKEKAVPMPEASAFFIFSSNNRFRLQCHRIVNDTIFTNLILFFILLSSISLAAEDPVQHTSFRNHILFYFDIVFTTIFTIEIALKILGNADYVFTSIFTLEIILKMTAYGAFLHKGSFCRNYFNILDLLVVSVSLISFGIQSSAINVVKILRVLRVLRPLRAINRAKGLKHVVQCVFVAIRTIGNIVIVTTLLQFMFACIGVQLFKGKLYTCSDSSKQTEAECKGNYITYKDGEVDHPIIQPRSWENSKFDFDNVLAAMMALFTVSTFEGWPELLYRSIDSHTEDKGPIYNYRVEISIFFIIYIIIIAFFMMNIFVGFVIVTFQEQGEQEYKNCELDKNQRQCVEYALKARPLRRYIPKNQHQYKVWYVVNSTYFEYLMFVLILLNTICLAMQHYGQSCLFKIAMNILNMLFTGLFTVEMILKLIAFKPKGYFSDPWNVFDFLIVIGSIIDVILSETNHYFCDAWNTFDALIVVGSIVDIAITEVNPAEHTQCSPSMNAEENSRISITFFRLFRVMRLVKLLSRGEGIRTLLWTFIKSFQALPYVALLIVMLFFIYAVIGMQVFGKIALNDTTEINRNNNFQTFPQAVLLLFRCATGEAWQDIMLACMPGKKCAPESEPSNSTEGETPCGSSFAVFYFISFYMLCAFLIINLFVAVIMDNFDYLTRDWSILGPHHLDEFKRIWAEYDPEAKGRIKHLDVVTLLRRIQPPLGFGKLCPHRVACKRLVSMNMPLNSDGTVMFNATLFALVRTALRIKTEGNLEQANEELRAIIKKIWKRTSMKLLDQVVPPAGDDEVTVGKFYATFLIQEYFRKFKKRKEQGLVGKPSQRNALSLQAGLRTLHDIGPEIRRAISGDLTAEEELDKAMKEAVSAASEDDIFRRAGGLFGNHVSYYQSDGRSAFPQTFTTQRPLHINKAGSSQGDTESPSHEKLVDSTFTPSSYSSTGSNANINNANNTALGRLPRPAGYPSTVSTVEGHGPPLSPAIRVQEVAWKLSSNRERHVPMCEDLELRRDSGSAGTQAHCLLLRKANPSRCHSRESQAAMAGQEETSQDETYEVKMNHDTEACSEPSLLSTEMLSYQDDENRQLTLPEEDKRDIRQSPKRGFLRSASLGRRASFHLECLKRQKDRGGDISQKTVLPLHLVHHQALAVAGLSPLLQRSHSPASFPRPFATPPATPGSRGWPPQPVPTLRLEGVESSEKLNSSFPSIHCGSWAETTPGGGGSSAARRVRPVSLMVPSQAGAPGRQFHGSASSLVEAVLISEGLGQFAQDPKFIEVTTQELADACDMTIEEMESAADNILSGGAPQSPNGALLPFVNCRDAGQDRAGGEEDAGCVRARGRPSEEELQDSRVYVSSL

[2] = target: Melatonin receptor type 1A (Homo sapiens) (UniProt P48039); experiment: Inhibition of Melatonin MT1 at 10 µM in the Eurofins-Panlabs radioligand binding assay (Eurofins_assay_251600); parameters: ligand concentration 0.05 nM; conditions: Compound concentration 10.0 uM
[3] = target: Receptor-interacting serine/threonine-protein kinase 1 (Mus musculus, UniProt Q60855); experiment: TR-FRET (mouse RIPK1)
[4] = target: Cannabinoid receptor 1 (Homo sapiens) (UniProt P21554); experiment: Inhibition of Cannabinoid CB1 at compound concentration of 10.0 uM in the Eurofins-Panlabs radioligand binding assay (Eurofins_assay_217050); parameters: ligand concentration 2 nM; conditions: Compound concentration 10.0 uM
Chain of Cannabinoid receptor 1 (Homo sapiens) (P21554 whole entry): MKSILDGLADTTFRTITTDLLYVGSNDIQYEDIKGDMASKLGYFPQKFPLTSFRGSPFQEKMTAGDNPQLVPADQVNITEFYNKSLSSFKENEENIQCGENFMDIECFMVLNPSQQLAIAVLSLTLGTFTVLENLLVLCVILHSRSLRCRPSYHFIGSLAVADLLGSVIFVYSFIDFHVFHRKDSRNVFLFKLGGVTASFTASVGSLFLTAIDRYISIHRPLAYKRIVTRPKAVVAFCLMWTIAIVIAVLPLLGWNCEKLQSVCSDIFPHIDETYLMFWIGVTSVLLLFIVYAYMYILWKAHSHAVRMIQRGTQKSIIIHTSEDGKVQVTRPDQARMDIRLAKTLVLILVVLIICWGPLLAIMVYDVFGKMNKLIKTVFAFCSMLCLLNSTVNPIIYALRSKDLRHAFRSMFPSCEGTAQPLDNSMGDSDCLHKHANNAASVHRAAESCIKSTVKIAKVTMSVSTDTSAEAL

Activin receptor type-1 = Activin receptor type-1 (Homo sapiens, UniProt Q04771); experiment: ALK2(ACV1LGF1) Takeda global kinase panel
Activin receptor type-2A = Activin receptor type-2A (Homo sapiens, UniProt P27037); experiment: ACtR2(AC2ALGE1) Takeda global kinase panel
Chain of Activin receptor type-2A (P27037 whole entry): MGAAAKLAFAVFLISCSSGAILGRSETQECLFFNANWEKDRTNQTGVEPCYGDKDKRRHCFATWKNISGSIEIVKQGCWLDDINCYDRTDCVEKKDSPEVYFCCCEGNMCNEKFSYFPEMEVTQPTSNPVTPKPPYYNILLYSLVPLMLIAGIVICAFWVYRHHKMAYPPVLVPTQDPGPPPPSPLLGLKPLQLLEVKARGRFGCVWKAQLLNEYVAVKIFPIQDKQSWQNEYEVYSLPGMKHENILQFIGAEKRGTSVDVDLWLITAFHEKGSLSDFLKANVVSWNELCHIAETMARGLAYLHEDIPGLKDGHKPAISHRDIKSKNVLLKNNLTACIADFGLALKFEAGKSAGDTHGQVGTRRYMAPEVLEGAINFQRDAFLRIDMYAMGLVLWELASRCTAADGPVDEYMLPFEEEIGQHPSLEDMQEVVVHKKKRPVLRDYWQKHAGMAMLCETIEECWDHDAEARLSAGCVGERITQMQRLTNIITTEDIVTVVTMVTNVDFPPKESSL

[5] = target: Cyclin-dependent kinase 17 (Homo sapiens, UniProt Q00537); experiment: PCTAIRE2(CD17SGS1) Takeda global kinase panel
[6] = target: Cyclin-dependent kinase 2 (Homo sapiens, UniProt P24941); experiment: CDK2(CDK2CGS1) Takeda global kinase panel
[7] = target: Dual specificity protein kinase CLK2 (Homo sapiens, UniProt P49760); experiment: CLK2(CLK2LGF1) Takeda global kinase panel
[8] = target: Casein kinase II subunit alpha (Homo sapiens, UniProt P68400); experiment: CK2alpha1(C2A1LGF1) Takeda global kinase panel
Chain of Casein kinase II subunit alpha (P68400 whole entry): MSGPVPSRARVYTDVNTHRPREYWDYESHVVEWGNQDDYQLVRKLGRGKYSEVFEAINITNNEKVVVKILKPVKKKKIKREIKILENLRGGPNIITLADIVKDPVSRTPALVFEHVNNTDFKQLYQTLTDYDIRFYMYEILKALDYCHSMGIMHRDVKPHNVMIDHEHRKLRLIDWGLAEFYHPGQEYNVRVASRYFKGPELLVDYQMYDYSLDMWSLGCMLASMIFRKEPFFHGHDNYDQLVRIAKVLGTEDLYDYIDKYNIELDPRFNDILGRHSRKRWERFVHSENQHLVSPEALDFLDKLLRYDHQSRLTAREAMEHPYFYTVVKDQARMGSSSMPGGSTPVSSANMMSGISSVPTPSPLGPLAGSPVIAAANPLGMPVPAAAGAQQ

[9] = target: Death-associated protein kinase 1 (Homo sapiens, UniProt P53355); experiment: DAPK1(DAP1LGF1) Takeda global kinase panel
[10] = target: Death-associated protein kinase 2 (Homo sapiens, UniProt Q9UIK4); experiment: DAPK2(DAP2LGF1) Takeda global kinase panel
Ephrin type-A receptor 1 = Ephrin type-A receptor 1 (Homo sapiens, UniProt P21709); experiment: EphA1(EPA1LGY1) Takeda global kinase panel
[11] = target: Receptor-type tyrosine-protein kinase FLT3 (Homo sapiens, UniProt P36888); experiment: FLT3(FLT3MGE1) Takeda global kinase panel
[12] = target: Dual specificity mitogen-activated protein kinase kinase 6 (Homo sapiens, UniProt P52564); experiment: MKK6 [MAP2K6(M2K6LGF1)] Takeda global kinase panel
[13] = target: Mitogen-activated protein kinase kinase kinase 11 (Homo sapiens, UniProt Q16584); experiment: MLK3(M311LGF1) Takeda global kinase panel
[14] = target: Mitogen-activated protein kinase kinase kinase 14 (Homo sapiens, UniProt Q99558); experiment: NIK(M314LGP1) Takeda global kinase panel
[15] = target: Mitogen-activated protein kinase kinase kinase 7 (Homo sapiens, UniProt O43318); experiment: TAK1(M3K7CHY1) Takeda global kinase panel
[16] = target: Mitogen-activated protein kinase 14 (Homo sapiens, UniProt Q16539); experiment: p38alpha(MP14LGI1) Takeda global kinase panel
[17] = target: Mitogen-activated protein kinase 9 (Homo sapiens, UniProt P45984); experiment: JNK2(MAP9LGF1) Takeda global kinase panel
[18] = target: Serine/threonine-protein kinase MARK2 (Homo sapiens, UniProt Q7KZI7); experiment: MARK2(MAR2LGY1) Takeda global kinase panel
[19] = target: Microtubule-associated serine/threonine-protein kinase 4 (Homo sapiens, UniProt O15021); experiment: MAST4(MAS4LGRD) Takeda global kinase panel
[20] = target: Protein kinase C theta type (Homo sapiens, UniProt Q04759); experiment: PKCtheta(PRKQLGM5) Takeda global kinase panel
[21] = target: Serine/threonine-protein kinase D1 (Homo sapiens, UniProt Q15139); experiment: PKD1(PRD1LHY1) Takeda global kinase panel
[22] = target: Rho-associated protein kinase 2 (Homo sapiens, UniProt O75116); experiment: ROCK2(ROC2LGG1) Takeda global kinase panel
[23] = target: Ribosomal protein S6 kinase alpha-5 (Homo sapiens, UniProt O75582); experiment: MSK1(R6A5LGY1) Takeda global kinase panel
[24] = target: STE20-like serine/threonine-protein kinase (Homo sapiens, UniProt Q9H2G2); experiment: SLK(SLK1LGRJ) Takeda global kinase panel
SRSF protein kinase 1 = SRSF protein kinase 1 (Homo sapiens, UniProt Q96SB4); experiment: SRPK1(SRP1IHRL) Takeda global kinase panel
[25] = target: Serine/threonine-protein kinase 24 (Homo sapiens, UniProt Q9Y6E0); experiment: MST3(ST24LGC1) Takeda global kinase panel
[26] = target: Serine/threonine-protein kinase 32B (Homo sapiens, UniProt Q9NY57); experiment: YANK2(S32BLGY2) Takeda global kinase panel
[27] = target: Dual specificity testis-specific protein kinase 2 (Homo sapiens, UniProt Q96S53); experiment: TESK2(TES2LGRL) Takeda global kinase panel
[28] = target: Non-receptor tyrosine-protein kinase TYK2 (Homo sapiens, UniProt P29597); experiment: Tyk2(TYK2LGF1) Takeda global kinase panel
Chain of Non-receptor tyrosine-protein kinase TYK2 (P29597 whole entry): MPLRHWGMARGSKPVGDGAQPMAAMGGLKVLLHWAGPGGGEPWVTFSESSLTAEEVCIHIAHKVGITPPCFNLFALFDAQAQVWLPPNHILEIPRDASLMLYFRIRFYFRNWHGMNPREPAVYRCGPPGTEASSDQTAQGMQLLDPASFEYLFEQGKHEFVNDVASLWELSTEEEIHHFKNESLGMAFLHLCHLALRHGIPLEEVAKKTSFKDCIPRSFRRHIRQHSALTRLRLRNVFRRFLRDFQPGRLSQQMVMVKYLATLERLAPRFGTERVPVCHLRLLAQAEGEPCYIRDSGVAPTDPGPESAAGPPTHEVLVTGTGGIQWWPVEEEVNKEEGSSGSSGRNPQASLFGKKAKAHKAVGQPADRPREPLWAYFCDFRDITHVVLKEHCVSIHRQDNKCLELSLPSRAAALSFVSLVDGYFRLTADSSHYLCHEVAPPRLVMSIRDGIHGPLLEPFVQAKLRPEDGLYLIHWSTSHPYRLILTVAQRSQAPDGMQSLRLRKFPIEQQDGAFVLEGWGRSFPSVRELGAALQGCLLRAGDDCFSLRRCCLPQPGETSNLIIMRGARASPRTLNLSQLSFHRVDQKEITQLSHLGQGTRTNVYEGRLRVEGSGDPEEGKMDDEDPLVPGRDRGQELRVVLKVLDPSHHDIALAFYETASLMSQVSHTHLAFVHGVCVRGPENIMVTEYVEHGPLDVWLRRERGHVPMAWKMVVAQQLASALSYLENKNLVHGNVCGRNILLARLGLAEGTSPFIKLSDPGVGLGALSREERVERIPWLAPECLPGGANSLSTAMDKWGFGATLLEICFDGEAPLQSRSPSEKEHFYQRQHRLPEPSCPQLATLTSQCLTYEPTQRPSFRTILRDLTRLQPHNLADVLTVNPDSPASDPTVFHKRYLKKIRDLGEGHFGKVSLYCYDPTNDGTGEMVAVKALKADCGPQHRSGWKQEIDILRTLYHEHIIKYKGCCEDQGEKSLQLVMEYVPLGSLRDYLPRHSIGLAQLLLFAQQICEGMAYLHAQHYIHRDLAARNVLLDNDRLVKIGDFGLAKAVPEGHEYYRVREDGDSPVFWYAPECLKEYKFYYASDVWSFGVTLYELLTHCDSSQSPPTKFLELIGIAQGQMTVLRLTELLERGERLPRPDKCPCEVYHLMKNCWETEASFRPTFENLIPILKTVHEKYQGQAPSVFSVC

[29] = target: Wee1-like protein kinase 2 (Homo sapiens, UniProt P0C1S8); experiment: Wee1B(WE1BLGF1) Takeda global kinase panel
[30] = target: Adenosine receptor A2a (Homo sapiens) (UniProt P29274); conditions: Compound concentration 10.0 uM
[31] = target: GABA-A receptor; anion channel (Rattus norvegicus) (UniProt O09028+P15431+P18506+P18508+P19969+P20236+P23574+P23576+P28471+P28473+P30191+P62813+P63079+P63138+Q91ZM7+Q9ES14); conditions: Compound concentration 10.0 uM

SMILES | inhibition at 90 min, 10 µM [1] | inhibition [2] [%] | IC50 [3] | inhibition [4] [%] | IC50 (Activin receptor type-1) [nM] | IC50 (Activin receptor type-2A) [nM] | IC50 [5] [nM] | IC50 [6] [nM] | IC50 [7] [nM] | IC50 [8] [nM] | IC50 [9] [nM] | IC50 [10] [nM] | IC50 (Ephrin type-A receptor 1) [nM] | IC50 [11] [nM] | IC50 [12] [nM] | IC50 [13] [nM] | IC50 [14] [nM] | IC50 [15] [nM] | IC50 [16] [nM] | IC50 [17] [nM] | also measured
CN1C(=O)[C@@H](N2CCc3cn(Cc4ccccc4)nc3C2=O)COc2ccccc21 [TP-030-1] | -18% (not active) | 45 | 4200 nM (active) | 5 | 1000 | 1000 | 1000 | 1000 | 1000 | 1000 | 1000 | 1000 | 1000 | 1000 | 1000 | 1000 | 1000 | 1000 | 1000 | 1000 | IC50 [18]: 1000 nM; IC50 [19]: 1000 nM; IC50 [20]: 1000 nM; IC50 [21]: 1000 nM; IC50 [22]: 1000 nM; IC50 [23]: 1000 nM; IC50 [24]: 1000 nM; IC50 (SRSF protein kinase 1): 1000 nM; IC50 [25]: 1000 nM; IC50 [26]: 1000 nM; IC50 [27]: 1000 nM; IC50 [28]: 1000 nM; IC50 [29]: 1000 nM; inhibition [30]: 10%; inhibition [31]: 8%
CN1C(=O)[C@@H](N2CCc3cn(CC4CCS(=O)(=O)CC4)nc3C2=O)COc2ccccc21 [TP-030n] | -6% (not active) | 9 | > 10000 nM (not active) | -5 | 1000 | 1000 | 1000 | 1000 | 1000 | 1000 | 1000 | 1000 | 1000 | 1000 | 1000 | 1000 | 1000 | 1000 | 1000 | 1000 | IC50 [18]: 1000 nM; IC50 [19]: 1000 nM; IC50 [20]: 1000 nM; IC50 [21]: 1000 nM; IC50 [22]: 1000 nM; IC50 [23]: 1000 nM; IC50 [24]: 1000 nM; IC50 (SRSF protein kinase 1): 1000 nM; IC50 [25]: 1000 nM; IC50 [26]: 1000 nM; IC50 [27]: 1000 nM; IC50 [28]: 1000 nM; IC50 [29]: 1000 nM; inhibition [30]: -8%; inhibition [31]: 12%
